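Test compounds were applied to cells in 96-well plates for 48 hours at 5 doses. GI50 is the concentration that inhibits growth by half. Definition used: TGI = concentration required for complete inhibition of growth.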
How the values were obtained:
Experiment in all cases: growth of human tumour cells (NCI), 48 h
A549 NSCLC = system: A549 NSCLC
SF-295 CNS = system: SF-295 CNS
HT29 colon = system: HT29 colon
U251 CNS = system: U251 CNS
786-0 renal = system: 786-0 renal
UO-31 renal = system: UO-31 renal
COLO 205 colon = system: COLO 205 colon
MDA-MB-435 = system: MDA-MB-435
LOX IMVI melanoma = system: LOX IMVI melanoma
K-562 leukemia = system: K-562 leukemia
OVCAR-4 ovarian = system: OVCAR-4 ovarian
M14 melanoma = system: M14 melanoma
PC-3 prostate = system: PC-3 prostate
SR leukemia = system: SR leukemia
NCI-H23 lung = system: NCI-H23 lung
HCT-15 colon = system: HCT-15 colon
RPMI-8226 leukemia = system: RPMI-8226 leukemia
SK-MEL-2 melanoma = system: SK-MEL-2 melanoma
NCI-H522 lung = system: NCI-H522 lung
OVCAR-8 ovarian = system: OVCAR-8 ovarian
BT-549 breast = system: BT-549 breast
SK-OV-3 ovarian = system: SK-OV-3 ovarian
ACHN renal = system: ACHN renal
MOLT-4 leukemia = system: MOLT-4 leukemia
A498 renal = system: A498 renal
MCF7 breast = system: MCF7 breast
NCI-H226 lung = system: NCI-H226 lung
SN12C renal = system: SN12C renal
SF-268 CNS = system: SF-268 CNS
CCRF-CEM leukemia = system: CCRF-CEM leukemia
SK-MEL-5 melanoma = system: SK-MEL-5 melanoma
OVCAR-5 ovarian = system: OVCAR-5 ovarian
UACC-257 melanoma = system: UACC-257 melanoma
MDA-MB-231 breast = system: MDA-MB-231 breast
KM12 colon = system: KM12 colon
HS 578T breast = system: HS 578T breast
CAKI-1 renal = system: CAKI-1 renal
OVCAR-3 ovarian = system: OVCAR-3 ovarian
HOP-62 NSCLC = system: HOP-62 NSCLC
SNB-75 CNS = system: SNB-75 CNS
NCI/ADR-RES ovarian = system: NCI/ADR-RES ovarian
T-47D breast = system: T-47D breast
HL-60(TB) leukemia = system: HL-60(TB) leukemia
SNB-19 CNS = system: SNB-19 CNS
SF-539 CNS = system: SF-539 CNS
HCT-116 colon = system: HCT-116 colon
NCI-H460 lung = system: NCI-H460 lung
DU-145 prostate = system: DU-145 prostate
IGROV1 ovarian = system: IGROV1 ovarian
SK-MEL-28 melanoma = system: SK-MEL-28 melanoma
SW-620 colon = system: SW-620 colon
HCC-2998 colon = system: HCC-2998 colon
MALME-3M melanoma = system: MALME-3M melanoma
UACC-62 melanoma = system: UACC-62 melanoma
RXF 393 renal = system: RXF 393 renal
TK-10 renal = system: TK-10 renal

## Oc1ccc(Br)cc1Sc1cc(Br)ccc1O
A549 NSCLC
  GI50: 5.09 µM
  TGI: 22 µM
SF-295 CNS
  GI50: 14.4 µM
  TGI: 33.5 µM
HT29 colon
  GI50: 19 µM
  TGI: 34.1 µM
U251 CNS
  GI50: 4.42 µM
  TGI: 18.4 µM
786-0 renal
  GI50: 18.6 µM
  TGI: 35.4 µM
UO-31 renal
  GI50: 5 µM
  TGI: 19.6 µM
COLO 205 colon
  GI50: 17.8 µM
  TGI: 34.9 µM
MDA-MB-435
  GI50: 5.23 µM
  TGI: 19.8 µM
LOX IMVI melanoma
  GI50: 4.89 µM
  TGI: 17.6 µM
K-562 leukemia
  GI50: 5.12 µM
  TGI: 32 µM
OVCAR-4 ovarian
  GI50: 4.72 µM
  TGI: 18.1 µM
M14 melanoma
  GI50: 10.7 µM
  TGI: 27.9 µM
PC-3 prostate
  GI50: 10.6 µM
  TGI: 29.4 µM
SR leukemia
  GI50: 5.39 µM
  TGI: 25.3 µM
NCI-H23 lung
  GI50: 3.14 µM
  TGI: 11.8 µM
HCT-15 colon
  GI50: 5.93 µM
  TGI: 22 µM
RPMI-8226 leukemia
  GI50: 3.18 µM
  TGI: 15.6 µM
SK-MEL-2 melanoma
  GI50: 5.62 µM
  TGI: 17.7 µM
NCI-H522 lung
  GI50: 2.69 µM
  TGI: 8.46 µM
OVCAR-8 ovarian
  GI50: 5.89 µM
  TGI: 24.7 µM
BT-549 breast
  GI50: 8.46 µM
  TGI: 23 µM
SK-OV-3 ovarian
  GI50: 14.9 µM
  TGI: 29.7 µM
ACHN renal
  GI50: 6.4 µM
  TGI: 20.8 µM
MOLT-4 leukemia
  GI50: 7.37 µM
  TGI: 38.4 µM
A498 renal
  GI50: 15.5 µM
  TGI: 31.1 µM
MCF7 breast
  GI50: 11.2 µM
  TGI: 30 µM
NCI-H226 lung
  GI50: 18.1 µM
  TGI: 41.9 µM
SN12C renal
  GI50: 3.89 µM
  TGI: 16.8 µM
SF-268 CNS
  GI50: 7.68 µM
  TGI: 26.7 µM
CCRF-CEM leukemia
  GI50: 5.25 µM
  TGI: 24.8 µM
SK-MEL-5 melanoma
  GI50: 3.16 µM
  TGI: 11.6 µM
OVCAR-5 ovarian
  GI50: 15.8 µM
  TGI: 32.1 µM
UACC-257 melanoma
  GI50: 5.2 µM
  TGI: 17.7 µM
MDA-MB-231 breast
  GI50: 6.58 µM
  TGI: 23.2 µM
KM12 colon
  GI50: 17 µM
  TGI: 33.3 µM
HS 578T breast
  GI50: 4.28 µM
  TGI: 25.8 µM
CAKI-1 renal
  GI50: 18.7 µM
  TGI: 45.5 µM
OVCAR-3 ovarian
  GI50: 4.98 µM
  TGI: 18 µM
HOP-62 NSCLC
  GI50: 13.6 µM
  TGI: 30.2 µM
SNB-75 CNS
  GI50: 4.29 µM
  TGI: 19.7 µM
NCI/ADR-RES ovarian
  GI50: 5.06 µM
  TGI: 24.3 µM
T-47D breast
  GI50: 4.36 µM
  TGI: 17.7 µM
HL-60(TB) leukemia
  GI50: 4.98 µM
  TGI: 25 µM
SNB-19 CNS
  GI50: 4.88 µM
  TGI: 25.2 µM
SF-539 CNS
  GI50: 4.66 µM
  TGI: 18.7 µM
HCT-116 colon
  GI50: 6 µM
  TGI: 24.3 µM
NCI-H460 lung
  GI50: 5.1 µM
  TGI: 20 µM
DU-145 prostate
  GI50: 11.7 µM
  TGI: 28.4 µM
IGROV1 ovarian
  GI50: 15.7 µM
  TGI: 36.3 µM
SK-MEL-28 melanoma
  GI50: 4.78 µM
  TGI: 16.6 µM
SW-620 colon
  GI50: 9.29 µM
  TGI: 25.3 µM

## COc1cc(/C=C/c2cc(C(F)(F)F)[nH]c(=O)n2)ccc1OCc1ccccc1F
A549 NSCLC
  GI50: 6.97 µM
  TGI: 40.3 µM
SF-295 CNS
  GI50: 5.07 µM
  TGI: 22 µM
HT29 colon
  GI50: 21.5 µM
  TGI: 43.6 µM
U251 CNS
  GI50: 5.23 µM
  TGI: 18.5 µM
786-0 renal
  GI50: 16.2 µM
  TGI: 33.1 µM
UO-31 renal
  GI50: 13 µM
  TGI: 29.4 µM
COLO 205 colon
  GI50: 19.1 µM
  TGI: 33.9 µM
MDA-MB-435
  GI50: 3.77 µM
  TGI: 17 µM
LOX IMVI melanoma
  GI50: 8.57 µM
  TGI: 22 µM
K-562 leukemia
  GI50: 7.55 µM
  TGI: 98.8 µM
OVCAR-4 ovarian
  GI50: 7.6 µM
  TGI: 67.9 µM
M14 melanoma
  GI50: 12.5 µM
  TGI: 26.1 µM
PC-3 prostate
  GI50: 9.06 µM
  TGI: 29 µM
HCC-2998 colon
  GI50: 15.5 µM
  TGI: 30.1 µM
SR leukemia
  GI50: 4.17 µM
  TGI: 43.3 µM
MALME-3M melanoma
  GI50: 13.9 µM
  TGI: 43.1 µM
UACC-62 melanoma
  GI50: 7.57 µM
  TGI: 21.6 µM
NCI-H23 lung
  GI50: 10.5 µM
  TGI: 31.9 µM
HCT-15 colon
  GI50: 5.22 µM
  TGI: 28.3 µM
RPMI-8226 leukemia
  GI50: 3.85 µM
  TGI: 27.1 µM
SK-MEL-2 melanoma
  GI50: 12.1 µM
  TGI: 28.2 µM
NCI-H522 lung
  GI50: 5.62 µM
  TGI: 20.4 µM
OVCAR-8 ovarian
  GI50: 8.85 µM
  TGI: 48.8 µM
BT-549 breast
  GI50: 5.04 µM
  TGI: 20.6 µM
SK-OV-3 ovarian
  GI50: 16.3 µM
  TGI: 50.8 µM
ACHN renal
  GI50: 12.7 µM
  TGI: 38.7 µM
MOLT-4 leukemia
  GI50: 7.27 µM
  TGI: 38 µM
A498 renal
  GI50: 1.73 µM
  TGI: 8.6 µM
MCF7 breast
  GI50: 4.13 µM
  TGI: 17.3 µM
NCI-H226 lung
  GI50: 11.9 µM
  TGI: 43.2 µM
SN12C renal
  GI50: 7.04 µM
  TGI: 32.6 µM
SF-268 CNS
  GI50: 17.9 µM
  TGI: > 100 µM
CCRF-CEM leukemia
  GI50: 3.94 µM
  TGI: 26.3 µM
RXF 393 renal
  GI50: 2.4 µM
  TGI: 8.78 µM
SK-MEL-5 melanoma
  GI50: 6.97 µM
  TGI: 20.2 µM
OVCAR-5 ovarian
  GI50: 16.5 µM
  TGI: 30.9 µM
UACC-257 melanoma
  GI50: 7.51 µM
  TGI: 31.3 µM
MDA-MB-231 breast
  GI50: 13.1 µM
  TGI: 53 µM
KM12 colon
  GI50: 11.8 µM
  TGI: 26.2 µM
HS 578T breast
  GI50: 32 µM
  TGI: > 100 µM
CAKI-1 renal
  GI50: 11.3 µM
  TGI: 42.3 µM
OVCAR-3 ovarian
  GI50: 4.72 µM
  TGI: 17.4 µM
TK-10 renal
  GI50: 18 µM
  TGI: 39.1 µM
HOP-62 NSCLC
  GI50: 10.3 µM
  TGI: 25 µM
SNB-75 CNS
  GI50: 21 µM
  TGI: 56.7 µM
NCI/ADR-RES ovarian
  GI50: 14.7 µM
  TGI: > 100 µM
T-47D breast
  GI50: 9.98 µM
  TGI: 63.1 µM
HL-60(TB) leukemia
  GI50: 9.25 µM
  TGI: 68.2 µM
SNB-19 CNS
  GI50: 11.5 µM
  TGI: 30.1 µM
SF-539 CNS
  GI50: 3.68 µM
  TGI: 13.8 µM
HCT-116 colon
  GI50: 7.12 µM
  TGI: 19.6 µM
NCI-H460 lung
  GI50: 4.44 µM
  TGI: 39.3 µM
DU-145 prostate
  GI50: 9.8 µM
  TGI: 23.3 µM
IGROV1 ovarian
  GI50: 12.4 µM
  TGI: 42 µM
SK-MEL-28 melanoma
  GI50: 9.27 µM
  TGI: 24.7 µM
SW-620 colon
  GI50: 7.97 µM
  TGI: 28.3 µM
